Results: BigSolDB 2.1

CC[C@H](/C=C/[C@@H](C)[C@H]1CC[C@H]2[C@@H]3CC=C4C[C@@H](OC(=O)/C=C\C(=O)O)CC[C@]4(C)[C@H]3CC[C@]12C)C(C)C
Conditions	solubility (mole fraction)
in acetone, 293.15 K	0.000383
in acetone, 296.65 K	0.000431
in acetone, 303.65 K	0.000535
in acetone, 317.15 K	0.000785
in acetone, 325.65 K	0.00102
in ethyl acetate, 288.15 K	0.00146
in ethyl acetate, 293.25 K	0.00179
in ethyl acetate, 298.15 K	0.00202
in ethyl acetate, 302.65 K	0.0028
in ethyl acetate, 308.65 K	0.00395
in ethyl acetate, 312.65 K	0.00438
in ethyl acetate, 317.35 K	0.0053
